From ChEMBL document CHEMBL5576053, “Nonclassical Zwitterions as a Design Principle to Reduce Lipophilicity without Impacting Permeability” (J Med Chem, 2024)

Legend:
Type in all cases: physicochemical
[1] = Acidic ionization constant, pKa of the compound
[2] = Basic ionization constant, pKa of the compound
[3] = Ionization constant, pKa of compound at pH 1 to 5
[4] = Ionization constant, pKa of compound at pH 5 to 10
[5] = 1-octanol/water partition coefficient, acidic logP of compound by shake flask method
[6] = Acidic ionization constant, pKa of the compound by potentiometric titration analysis
[7] = Ionization constant, pKa of compound

SMILES	pKa [1]	pKa [2]	also measured
COc1ccnc(C(=O)NC2CCCCC2)c1O	9.1	2.3	–
CNC(=O)c1ccccc1O	8	–	–
CC(C)(C)NC(=O)c1ccccn1	–	2.1	–
O=C(NC1CCCCC1)c1nccc(Cl)c1O	6.8	< 2	–
Cc1ccnc(C(=O)NC2CCCCC2)c1O	8.5	< 2	–
CCOC(=O)CNC(=O)c1ncccc1O	–	2.2	–
O=C(NC1CCCCC1)c1ncccc1O	–	2.2	–
CC(C)CCNC(=O)c1ncccc1O	7.9	2.3	pKa [3]: 2.4; pKa [4]: 7.85
COc1cccc(CNC(=O)c2ncccc2OC)c1	–	2.9	–
CCCC1C(=O)N2C(N(C)C)=Nc3ccc(C)cc3N2C1=O (stereo unspecified) [APAZONE]	–	< 2	–
N[C@@H](Cc1cc(I)c(Oc2cc(I)c(O)c(I)c2)c(I)c1)C(=O)O [LEVOTHYROXINE]	–	–	logP [5]: 5.4
N[C@@H](Cc1cc(I)c(Oc2ccc(O)c(I)c2)c(I)c1)C(=O)O [LIOTHYRONINE]	–	–	logP [5]: 4.1
NC(=O)c1ncn([C@@H]2O[C@H](CO)[C@@H](O)[C@H]2O)c1O [MIZORIBINE]	–	–	pKa [6]: 6.5
CN1C(C(=O)Nc2ccccn2)=C(O)c2ccccc2S1(=O)=O [PIROXICAM]	–	–	logP [5]: 4
Cc1ncc(CO)c(CO)c1O [PYRIDOXINE]	–	–	pKa [7]: 5
CCc1cc(/C(C)=N/OCc2ccc(C3CCCCC3)c(C(F)(F)F)c2)ccc1CN1CC(C(=O)O)C1 [SIPONIMOD]	–	–	logP [5]: 8.9

The next lines start with results.

pKa [1]	pKa [2]	SMILES	also measured
–	< 2	Cc1cc(NC(=O)C2=C(O)c3ccccc3S(=O)(=O)N2C)no1 [ISOXICAM]	–
–	< 2	CN1C(C(=O)Nc2ccccn2)=C(O)c2sc(Cl)cc2S1(=O)=O [LORNOXICAM]	–
3.1	< 2	CN1C(C(=O)Nc2nccs2)=C(O)c2ccccc2S1(=O)=O [SUDOXICAM]	–
